69 molecules from PubChem BioAssay AID1648 (Sanford-Burnham Center for Chemical Genomics, 2009) can be followed below.

Structures are written as SMILES. Calls of active or inactive are those of the source. The rule behind the calls is not given here.

Serine/threonine-protein kinase mTOR (Homo sapiens), sequence (P42345 2015-2114): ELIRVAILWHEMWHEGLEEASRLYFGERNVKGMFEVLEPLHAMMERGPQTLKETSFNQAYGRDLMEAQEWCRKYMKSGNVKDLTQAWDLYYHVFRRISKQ

This assay concerns the target Serine/threonine-protein kinase mTOR (Homo sapiens) (UniProt P42345). Briefly: binders of mTOR FRB domain, biophysical, NMR (AID 1648). The settings on record: NMR binding to FRB domain, chemical shift.
`CC(=O)c1cc(-c2nc3ccccc3n2C)n(C)c1`: the Kd (in general, a measure of binding affinity in units of concentration) is > 4 mM (inactive). As for `O=S(=O)(N1CCOCC1)n1nnc2ccccc21`, the figure is > 4 mM (inactive). The figure for `COc1cc([C@@H]2c3cc4c(cc3[C@H](OC(C)=O)[C@H]3COC(=O)[C@@H]23)OCO4)cc(OC)c1OC` is > 4 mM (inactive); for `O=C1NC2NC(=O)N(c3ccccc3)C2N1` (centres undefined) it is > 4 mM (inactive). As for `COc1ccc(N=C2NC(=O)CS2)cc1`, the figure is > 4 mM (inactive); as for `COc1ccc2c(c1)O[C@@H]1COc3cc(OC)c(OC)cc3[C@@H]1C2=O`, > 4 mM (inactive).

For `CSc1nc(-c2ccco2)nn1S(C)(=O)=O`, the Kd is > 4 mM (inactive). The figure for `Nc1cc(=O)[nH]c(=S)n1-c1ccc(F)cc1` is > 4 mM (inactive); for `Cc1cc(C)nc(/N=C(/N)N2CCC(C(N)=O)CC2)n1` it is > 4 mM (inactive); for `NCCc1c[nH]c2ccccc12` it is > 4 mM (inactive). As for `Oc1ccc(-n2cncn2)cc1`, the figure is > 4 mM (inactive); as for `OCc1ccc2ncccc2c1`, > 4 mM (inactive); as for `C=C1C([C@]2(C)C(CC(=O)OC)[C@@](C)(COC(C)=O)OC(=O)C[C@@H]2OC(C)=O)[C@@H](OC=O)[C@H](OC(=O)C(OC(C)=O)C(C)CC)[C@@]2(C)[C@H](c3ccoc3)CC(=O)C12O` (some centres undefined), > 4 mM (inactive). Take `O=C(NCc1cccc(Cl)c1)c1ccco1`: the Kd was > 4 mM (inactive).

Consider `O=C(O)CN1C(=O)c2cccc([N+](=O)[O-])c2C1=O`, for which the Kd is > 4 mM (inactive). Turning to `COc1ccc(-c2cc(=O)c3c(O)c(OC)c(O[C@H]4O[C@H](CO[C@@H]5O[C@@H](C)[C@H](O)[C@@H](O)[C@H]5O)[C@@H](O)[C@H](O)[C@H]4O)cc3o2)cc1`, the Kd was > 4 mM (inactive).

Turning to `O=C1CCCc2c(O)cccc21`, the Kd is > 4 mM (inactive). The figure for `Cc1cc(N2C(=O)CCC2=O)n(-c2ccccc2)n1` is > 4 mM (inactive); for `COC(=O)c1c(C)cc(OC)cc1O` it is > 4 mM (inactive).

In the case of `FC(F)(F)c1nnc2ccc(N3CCOCC3)nn12`, the Kd was > 4 mM (inactive). The figure for `O=C(OCc1c(F)cccc1Cl)c1cnccn1` is > 4 mM (inactive). The figure for `O=S1(=O)CCC(NCCO)C1` (centres undefined) is > 4 mM (inactive).

Consider `OCc1csc(-c2cccs2)n1`, for which the Kd is > 4 mM (inactive). As for `C=C(C)C1CC=C(CO)CC1` (centres undefined), the figure is > 4 mM (inactive); as for `COc1cc([C@@H]2c3cc4c(cc3C(OC3O[C@@H]5COC(C)O[C@H]5[C@H](O)[C@H]3O)C3COC(=O)[C@@H]32)OCO4)cc(OC)c1O` (some centres undefined), > 4 mM (inactive); as for `O=C(O)Cc1csc(-c2ccccc2)n1`, > 4 mM (inactive). The figure for `CN1CCC(N(C)C2CCN(C)CC2)CC1` is > 4 mM (inactive). As for `Nc1ccc(S(=O)(=O)N2CCCCC2)cc1`, the figure is > 4 mM (inactive); as for `O=C(O)Cn1c(=O)sc2ccccc21`, > 4 mM (inactive). Take `CCC(C)OC1CCS(=O)(=O)C1` (centres undefined): the Kd is > 4 mM (inactive).

Take `CC1(C)CC23C(=O)CCC(O)C2(C)CCC13` (centres undefined): the Kd is > 4 mM (inactive). The figure for `NCc1oc(-c2ccccc2)cc1C(=O)O` is > 4 mM (inactive); for `O=C(Nc1ccc(Cl)cc1)N1CCCC1` it is > 4 mM (inactive); for `CN1CCC(N(C)Cc2cccnc2)CC1` it is > 4 mM (inactive). As for `S=c1ccc(N2CCCCC2)n[nH]1`, the figure is > 4 mM (inactive); as for `O=C1CSC(=S)N1N1C(=O)C2C3C=CC(C3)C2C1=O` (centres undefined), > 4 mM (inactive). The figure for `COC(=O)C[C@H]1C(C)(C)C(=O)[C@@H]2CC3=C(CC[C@]4(C)C3=CC(=O)O[C@H]4c3ccoc3)C1(C)C2=O` is > 4 mM (inactive).

Consider `O=C1Cn2c(nc3ccccc32)N1c1ccccc1F`, for which the Kd is > 4 mM (inactive). The figure for `Cc1ccccc1NC(=O)N1CCOCC1` is > 4 mM (inactive); for `CC1=C(CCC(=O)O)c2cc3nc(cc4[nH]c(cc5[nH]c(cc1n2)c(C)c5C(C)O)c(C)c4C(C)O)C(C)=C3CCC(=O)O` (centres undefined) it is > 4 mM (inactive). The figure for `O=C(O)C1Cc2ccccc2O1` (centres undefined) is > 4 mM (inactive). As for `Cc1noc(C)c1C(=O)N1CCc2ccccc2C1`, the figure is > 4 mM (inactive); as for `Cc1ccc2nc(NC(=O)CN3CCOCC3)sc2c1`, > 4 mM (inactive); as for `NC(CC(=O)O)C(=O)Nc1ccc(Cl)cc1` (centres undefined), > 4 mM (inactive). With `O=C1NC(=S)N/C1=C\c1cccnc1`, the Kd was > 4 mM (inactive). The figure for `Cc1occc1C(=O)Nc1sccc1C(N)=O` is > 4 mM (inactive).

As to `Oc1ccccc1N=Cc1cccnc1`, the Kd was > 4 mM (inactive). Turning to `Cn1[nH]c2nc3[nH]n(C)c(=O)c3c(-c3ccccc3)c2c1=O`, the Kd was > 4 mM (inactive). As for `O=C1CSC(c2ccccc2)N1` (centres undefined), the figure is > 4 mM (inactive); as for `O=C(NCc1ccccc1Br)c1ccco1`, > 4 mM (inactive). As for `O=C(O)CN1C(=O)c2ccc(C(=O)O)cc2C1=O`, the figure is > 4 mM (inactive); as for `Cc1nnc(Nc2ccc(S(N)(=O)=O)cc2)[nH]c1=O`, > 4 mM (inactive); as for `CC(=O)Oc1ccc(N2C(=O)C3C4C=CC(O4)C3C2=O)cc1` (centres undefined), > 4 mM (inactive). As for `CC1(C)C2CC(=O)[C@]3(C)C(CC[C@@]4(C)[C@H](c5ccoc5)OC(=O)[C@H]5O[C@]543)[C@@]2(C)C(=O)C[C@H]1O` (some centres undefined), the figure is > 4 mM (inactive). With `O=C(O)CCc1ccc2c(c1)OCO2`, the Kd is > 4 mM (inactive). Take `Cc1cc(C(=O)N2CCC3(CC2)OCCO3)cs1`: the Kd was > 4 mM (inactive). As for `O=C1CNC(=O)N1Cc1ccc(F)cc1`, the figure is > 4 mM (inactive); as for `O=[N+]([O-])c1c[n+]([O-])n(-c2ccccc2)n1`, > 4 mM (inactive). The figure for `COC(=O)C1=C(C)N(Cc2ccco2)C(=O)C1` is > 4 mM (inactive). The figure for `CC(=O)c1ccc[nH]1` is > 4 mM (inactive); for `COc1cc(O)ccc1C(C)=O` it is > 4 mM (inactive); for `CN1CCOc2cc(C(=O)O)ccc21` it is > 4 mM (inactive). For the molecule `COc1ccc(C(=O)NNC(=S)NC(C)=O)cc1`, the Kd was > 4 mM (inactive). As for `O=C(O[C@@H]1Cc2c(O)cc(O)cc2O[C@@H]1c1cc(O)c(O)c(O)c1-c1c([C@H]2Oc3cc(O)cc(O)c3C[C@H]2O)cc(O)c(O)c1O)c1cc(O)c(O)c(O)c1`, the figure is > 4 mM (inactive); as for `COc1ccc(-c2oc3ccccc3c(=O)c2O)cc1OC`, > 4 mM (inactive); as for `Cc1ccc(C)c(S(=O)(=O)NCc2cccnc2)c1`, > 4 mM (inactive). As for `CS(=O)(=O)N1CCN(C(=O)c2ccccc2)C1`, the figure is > 4 mM (inactive); as for `CC[C@@]1(O)C[C@H](O)c2c(cc3c(c2O)C(=O)c2c(O)ccc(O)c2C3=O)[C@H]1C(=O)OC`, > 4 mM (inactive). The figure for `Oc1ccc(/C=C/c2cc(O)cc(O)c2)cc1` is > 4 mM (inactive).
